Laboratory results: US5736568A, “2-(aminoalkoxy) phenylalkylamines with antiinflammatory activity” (Knoll Aktiengesellschaft, priority 1994, dated 1998)

Legend:
[1] = system: arachidonic acid release from zymosan stimulated macrophages; assay: Test A: Inhibition of Arachidonic Acid Release from Zymosan Stimulated Macrophages; format: cell-based, mice (female MF1); conditions: Mus musculus, Macrophage; peritoneal macrophages labelled with [3H]-arachidonic acid, zymosan stimulus, 5 h; tested at 100, 50, 20, 10, 5 and 1 μM
Method: Test A was carried out in the following way:
Inhibition of Arachidonic Acid Release from Zymosan Stimulated Macrophages
Female MF1 mice (weighing 20 to 25 g) were killed using a rising concentration of CO2. The mice were laid on their backs and the abdomens wiped with 70% alcohol. The skin was pulled back, exposing the peritoneal wall. Medium A (5 ml) (see below) was injected into the peritoneal cavity of each mouse followed by approximately 1 ml of air using a 20 ml syringe and a 21 G×40 mm needle in order to form a suspension of macrophage cells. The medium and cells were then removed using a 19 G×40 mm needle. The resulting suspension was returned to a sterile beaker kept on ice. The extracts from all the mice were pooled and this pooled cell suspension was counted using a Coulter counter and adjusted to a final cell count of 1-1.3×10^6 cells/ml prior to labelling with [^3 H]-arachidonic acid. Typically five mice provided sufficient cells for each multiwell plate.
Sufficient [^3 H]-arachidonic acid in ethanol to give a final concentration of 1.6 μCi/ml (equivalent to 40 μCi/plate) was blown to dryness under nitrogen. The arachidonic acid was then resuspended in 1 or 2 ml of the cell suspension which was then mixed with the remainder of the cell suspension in a centrifuge bottle.
The following day, non-adherent cells were removed by washing 3 times with sterile phosphate buffered saline (PBS). The adherent peritoneal macrophages were then cultured for a further 24 hours in the presence or absence of drugs, in medium B (see below) at 37° in a 5% CO2 atmosphere in order to measure the effects of drugs on the spontaneous release of arachidonic acid in the absence of stimulus. After this incubation, supernatants were removed to give medium 1 and stored in sealed multi-well plates at 4° C. prior to scintillation counting. […] The supernatants were replaced by fresh medium C containing fresh drug and a stimulus. Three drugs were tested at six concentrations (100, 50, 20, 10, 5 and 1 μM) in replicates of four on each plate. The other wells contained controls consisting of a positive control (e.g. dexamethasone), medium (B) only and medium C only.
Incubation was then continued for a further 5 hours, whereupon the supernatants were collected to give medium 2 and the adherent cells washed with PBS. The cells were then lysed with 100 μl of 0.1% TRITON® X100 in a 0.1% solution of bovine serum albumin in 0.9% saline and mechanically disrupted to give cell lysates. These supernatants (medium 2) and cell lysates (Cells) were also stored in sealed multi-well plates at 4° C. prior to scintillation counting. 200 μl aliquots of media, or 100 μl aliquots of cells were counted using 2 ml of OPTIPHASE "HIGH SAFE" (Trademark of LKB) as scintillant.
The percentage of arachidonic acid released was calculated using the mean values for each group of 4 wells in the following equation. [formula]
The percentage inhibition of arachidonic acid release caused by a drug may then be calculated using the following equation. [formula]
Medium A (for peritoneal lavage)
This mixture was transferred to sterile flask and made up to 400 ml with sterile water.
Medium B (for cell culture)
This mixture was transferred to a sterile beaker and made up to 650 ml with sterile water.
Medium C=medium B+stimulant (zymosan)
The zymosan stimulant was prepared as follows:--zymosan (200 mg) (supplied by Sigma) was added to PBS (20 ml). The mixture was boiled for 30 minutes and the volume restored to 20 ml with water. The zymosan was harvested by centrifugation at 500×g for 5 minutes, washed twice by resuspension in PBS (10 ml) and centrifugation. After the final separation, the zymosan was resuspended in 20 ml PBS and stored as 1 ml aliquots at -20° C.

[2] = system: carrageenan-induced paw oedema; assay: Test B: Carrageenan-induced rat paw oedema test; format: in vivo; conditions: inhibition of paw oedema, 100 mg/kg oral, 3 h after carrageenan
Method: Test B was carried out in the following way:
Carrageenan-induced rat paw oedema test
Female rats, weight range 125-150 g were fasted overnight. One of the hind legs of each animal was marked with a line at the connection between the cuboid/navicular and calcaneus/talus bones. Groups of six rats were orally dosed at 10 ml/kg, in random order, with a given dose of the test compound given as a solution or suspension in 10% (w/v) aqueous acacia solution.
One hour after dosing, 0.1 ml of 1% (w/v) sterile carrageenan λ in normal saline was injected deeply into the plantar surface of the marked hind foot of each rat. The volume of the foot (up to the marked line) was measured immediately after injection using duplicate water displacement readings. Three hours after injection the foot volume was measured again and the percentage increase in foot volume relative to the initial reading was calculated.
The increase in foot volume (i.e. the degree of oedema) in drug treated animals when compared with that in the drug untreated control gave the degree of inhibition of paw oedema by the drug.
Compounds were considered to be active in this test if they produced a statistically significant (typically 20% or greater) inhibition of paw oedema in at least two out of three tests after oral dosing at 100 mg/kg. Statistical significance was assessed using the Student's t test for single dose studies and Dunnett's test for multiple dose studies. More advantageous compounds were active in both Tests A and B,

[3] = system: carrageenan-induced pleurisy; assay: Test C: Carrageenan-induced pleurisy in rats; format: in vivo, rat; conditions: 24 h and 48 h, leukocytes harvested at 72 h; for activity in Test C at 30 mg/kg: 30 mg/kg p.o. at challenge; for activity in Test C at 10 mg/kg or less: 10 mg/kg or less p.o. at challenge
Method: The most advantageous compounds of formula I were active in Test A and also in the following test. Carrageenan-induced pleurisy in rats was carried out as described by Ackerman et al. J. Pharmacol. Exp. Therap. 1980, 215, 588-595. Migrating leukocytes were harvested by lavage of the thoracic cavity 72 h after injection of 0.3 ml 1% λ-carrageenan in sterile isotonic saline. Test compounds were administered p.o. at the time of challenge and 24 h and 48 h thereafter.

SMILES | IC50 [1] | inhibition at 100 mg/kg [2] | activity in Test C at 30 mg/kg [3] | activity in Test C at 10 mg/kg or less [3]
CN(CCOc1ccc(Cl)cc1CN1CCCCC1)Cc1ccccc1 [Example 11, N-Benzyl-2-[4-chloro-2-(piperidinomethyl)phenoxy]-N-methylethylamine] | 10 µM | 47% | active | –
CN(C)Cc1cc(Cl)ccc1OCCCN(C)Cc1ccccc1 [Example 12, 2-[3-(N-Benzyl-N-methylamino)propoxy]-5-chloro-N,N-dimethylbenzylamine] | 8 µM | 68% | active | –
CN(C)Cc1c(OCCN(C)Cc2ccccc2)ccc(Cl)c1Cl [Example 13, 2-[2-(N-Benzyl-N-methylamino)ethoxy]-5,6-dichloro-N,N-dimethylbenzylamine] | 8 µM | 70% | active | –
CN(C)Cc1ccccc1OCCN(C)Cc1ccc(Cl)cc1 [Example 17, 2-{2-[N-(4-Chlorobenzyl)-N-methylamino]ethoxy}-N,N-dimethylbenzylamine] | 13 µM | 36% | – | active
CN(C)Cc1ccccc1OCCN(C)Cc1ccccc1 [Example 20, 2-[2-(N-Benzyl-N-methylamino)ethoxy]-N,N-dimethylbenzylamine] | 36 µM | 64% | active | –
CN(C)Cc1cc(Cl)ccc1OCCN(C)Cc1ccccc1 [Example 21, 2-[2-(N-Benzyl-N-methylamino)ethoxy]-5-chloro-N,N-dimethylbenzylamine] | 22 µM | 31% | – | active
CN(C)CCOc1ccc(Cl)cc1CN(C)C [Example 22, 5-Chloro-2-(2-dimethylaminoethoxy)-N,N-dimethylbenzylamine] | 14 µM | 26% | active | –
